Test results from patent US12709745B2 (priority 2012, dated 2026).

What was measured:
WT DJ-1 = WT DJ-1 (Homo sapiens, UniProt Q99497); type: biochemical
DJ-1 [1] = target: T1, DJ-1 (Homo sapiens, UniProt Q99497); type: biochemical
[2] = target: recombinant human WT SOD1 (Homo sapiens, UniProt P00441); type: biochemical
DJ-1 [3] = target: T1, DJ-1; type: binding
[4] = in vivo; cited from earlier work
SOD1 = SOD1 (Homo sapiens, UniProt P00441); type: biochemical
Sequence of SOD1 (P00441 whole entry): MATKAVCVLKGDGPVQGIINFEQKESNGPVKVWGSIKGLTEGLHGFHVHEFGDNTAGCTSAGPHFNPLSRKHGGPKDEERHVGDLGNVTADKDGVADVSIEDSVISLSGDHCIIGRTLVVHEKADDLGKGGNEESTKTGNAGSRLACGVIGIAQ

Sequence of WT DJ-1 (Q99497 whole entry): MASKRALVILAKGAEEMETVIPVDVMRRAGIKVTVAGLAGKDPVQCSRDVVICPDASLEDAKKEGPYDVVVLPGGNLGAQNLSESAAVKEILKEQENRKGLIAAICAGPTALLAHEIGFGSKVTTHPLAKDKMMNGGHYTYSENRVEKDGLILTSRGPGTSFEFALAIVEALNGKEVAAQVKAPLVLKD
T1 sequence (Q99497 whole entry): as above
Sequence of recombinant human WT SOD1 (P00441 whole entry): as the sequence (P00441 whole entry) above

Structure (SMILES)	covalent dimerization of DJ-1 (WT DJ-1)	covalent dimerization of SOD1 [2]	denaturation temperature of DJ-1 (DJ-1 [3])	other results
[O-][S+]1CCCCS1 (stereo not shown) [NSC56224, 1-oxo-1,2-dithiane]	covalent dimerizer of DJ-1	capable of covalently dimerizing SOD1	increase the measured denaturation temperature of DJ-1	site of covalent linkage in DJ-1 dimer (DJ-1 [1]): covalently linked DJ-1 dimers at Cys53; extent of cross-linking of SOD1 monomers [2]: able to cross-link the majority of SOD1 monomers in the sample
OCC1(CO)CSSC1 [1,2-dithiolane-4,4-dimethanol]	–	capable of covalently dimerizing SOD1	–	–
NC(=O)NN=C1CSSC1 [NSC72268]	specific covalent dimerizer of DJ-1	–	increase the measured denaturation temperature of DJ-1	–
CC(C)C[C@H](NC(=O)[C@H](Cc1ccccc1)NC(=O)c1cnccn1)B(O)O [bortezomib]	–	–	–	LD100 [4]: < 0.25 mg/kg
O=C1C=CC(=O)N1CCSSCCN1C(=O)C=CC1=O [DTME, dithio-bismaleimidocthane]	–	–	–	cross-linking of SOD1 monomers (SOD1): able to cross-link SOD1 monomers
